Patent US20260042764A1, “COMPOSITIONS AND METHODS FOR INHIBITION OF KRAS” (TheRas, Inc., priority 2022, published 2026)
Read-outs that look alike come from different tables or passages of the source.

How the values were obtained:
KP-2 cells (KRAS G12R) = assay: Cell-based pERK HTRF assay in KP-2 cells (Biological Example 5); settings: KP-2 (KRAS G12R) cells
Method: (§1) Biological Example 5: Cell-based PERK HTRF assay in AsPC-1, SW1900, HPAC, Capan-2, RKN, H358, HCT116, KP-2, H1573, A549, MKN1, and HT1080 cells
(§2) The inhibition of ERK phosphorylation, as measured using the HTRF Advanced Phospho-ERK 1/2 (Thr202/Tyr204) Detection Assay kit (Perkin Elmer), was used to determine the effectiveness of test compounds in disrupting KRAS-driven protein/effector signaling in cells.
(§3) On day 1, cells were seeded into 96-well plates at 2.5×10^4 cells/well in 100 μL of complete growth media supplemented with 10% fetal bovine serum (FBS) and incubated at 37° C., in the presence of 5% CO2.
(§4) On day 2, cells were treated with compounds diluted in DMSO at 0.25% final DMSO concentration. Compounds were dosed in a 9-point concentration curve with three-fold dilution between concentrations. Cells were incubated in the presence of compound for two hours at 37° C. Following this treatment period, cells were harvested by aspirating the media, adding 40 μL of kit-supplied 1x lysis buffer per well, and shaking for 30 minutes at 250 rpm at room temperature.
(§5) Following cell lysis, samples were homogenized by pipetting up and down twenty times and 16 μL of cell lysate per well was transferred from the 96-well cell culture plate to two wells of a 384-well detection plate. A complete detection buffer was prepared by diluting D2 and Eu Cryptate antibodies 1:20 in kit-provided detection solution, 4 μL of complete detection buffer was then added to each well with lysate. Plates were incubated with gentle rocking for 24 hours at 4° C.
(§6) Following this incubation period, plates were centrifuged at 500×g for one minute and analyzed on a CLARIOstar plate reader. Data was imported into Microsoft Excel and the signal from the 665 nm channel was divided by the signal from the 620 nm channel. % pERK was calculated as: […]
(§7) Data was imported to the Prism software package (Graphpad) and EC50 values were calculated using the log (inhibitor) vs, response—variable slopc (Four parameters) model.

AsPC-1 cells (KRAS G12D) [1] = assay: Cell-based pERK HTRF assay in AsPC-1 cells (Biological Example 5)
Summary of the method: (§8)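 To gauge disruption of KRAS-driven signalling, pERK1/2 (Thr202/Tyr204) was quantified by time-resolved FRET in lysates of cells exposed 2 h at 37° C to a 9-point dose series. Signal ratio 665/620 nm was converted to % pERK for four-parameter EC50 fitting.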

AsPC-1 cells (KRAS G12D) [2] = assay: 3D Cell viability assay in AsPC-1 cells (Biological Example 6); format: cell-based; settings: Homo sapiens, ASPC1; AsPC-1 (KRAS G12D) spheroids, 72 hours
Summary of the method: (§9)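 Tumour spheroids, grown 48 h from 1000 seeded cells in ultra-low attachment wells, receive compound at nine three-fold-spaced concentrations (final DMSO 0.25%) for 72 h at 37 °C, 5% CO2. Viability is measured by luminescence after CTG 3D lysis.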

HT1080 cells (NRAS) [3] = assay: Cell-based pERK HTRF assay in HT1080 cells (Biological Example 5)
Summary of the method: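 Overnight-plated cells (2.5×10^4/well, 10% FBS); 2 h compound, 9-pt 3-fold curve, 0.25% DMSO, 37° C; lysis 30 min RT; Eu cryptate/D2 anti-pERK (T202/Y204) detection 24 h, 4° C; 665/620 ratio → % pERK → 4-PL EC50.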

HCT116 cells (KRAS G13D) = assay: Cell-based pERK HTRF assay in HCT116 cells (Biological Example 5); settings: Homo sapiens, HCT-116
Summary of the method: as §8

SW1900 cells (KRAS G12D) = assay: 3D Cell viability assay in SW1900 cells (Biological Example 6); format: cell-based; settings: Homo sapiens; SW1990 (text: SW1900, KRAS G12D) spheroids, 72 hours
Summary of the method: as §9

[4] = test system: MKN1 cells (KRAS amplification); assay: 3D Cell viability assay in MKN1 cells (Biological Example 6); format: cell-based; settings: Homo sapiens, MKN-1; MKN (MKN1, KRAS amplification) spheroids, 72 hours
Method: (§10) Biological Example 6: 3D Cell viability assay in AsPC-1, SW1900, HPAC, Capan-2, RKN, H358, HCT116, KP-2, H1573, A549, MKN1, and HT1080 cells
(§11) The inhibition of cellular viability as a result of test compound treatment in a spheroid assay was measured using the CellTiter-Glow 3D Cell Viability Assay (Promega).
(§12) On Day 1, 1000 cells per well were seeded in 150 μL of complete growth media supplemented with 10% fetal bovine serum (FBS) and incubated at 37° C., in the presence of 5% CO2 in 96-well ultra-low attachment microplates (Corning) for 48 hours undisturbed to allow spheroids to form.
(§13) Following spheroid formation, cells were treated with compounds diluted in DMSO at 0.25% final DMSO concentration. Compounds were dosed in a 9-point concentration curve with three-fold dilution between concentrations. Cells were incubated in the presence of compound for 72 hours at 37° C., in the presence of 5% CO2.
(§14) Following this incubation period, the kit-provided CTG reagent was allowed to equilibrate for 30 minutes at room temperature, 150 μL of equilibrated CTG reagent was added to each well, and the plate was sealed before shaking at 250 rpm for 10 minutes at room temperature to lyse the cells, 150 μL of lysate per well was transferred to a 96-well plate and luminescence was read on a CLARIOstar plate reader.
(§15) Data was imported into the Prism software package (Graphpad) and EC50 values were calculated using the log (inhibitor) vs, response—variable slope (Four parameters) model.

HPAC cells (KRAS G12D) = assay: Cell-based pERK HTRF assay in HPAC cells (Biological Example 5)
Summary of the method: as §8

[5] = test system: Capan-2 cells (KRAS G12V); assay: Cell-based pERK HTRF assay in Capan-2 cells (Biological Example 5)
Summary of the method: as §8

H358 cells (KRAS G12C) = assay: 3D Cell viability assay in H358 cells (Biological Example 6); format: cell-based; settings: Homo sapiens, NCI-H358; H358 (KRAS G12C) spheroids, 72 hours
Summary of the method: as §9

H1573 cells (KRAS G12A) = assay: Cell-based pERK HTRF assay in H1573 cells (Biological Example 5); settings: Homo sapiens, NCI-H1573
Method: as §1, §2, §3, §4, §5, §6, §7

HT1080 cells (NRAS) [6] = assay: 3D Cell viability assay in HT1080 cells (Biological Example 6); format: cell-based; settings: Homo sapiens, HT-1080; HT1080 (NRAS) spheroids, 72 hours
Method: as §10, §11, §12, §13, §14, §15

RKN cells (KRAS G12V) [7] = assay: Cell-based pERK HTRF assay in RKN cells (Biological Example 5)
Summary of the method: as §8

RKN cells (KRAS G12V) [8] = assay: 3D Cell viability assay in RKN cells (Biological Example 6); format: cell-based; settings: RKN (KRAS G12V) spheroids, 72 hours
Summary of the method: as §9

[9] = Homo sapiens, ASPC1, AsPC-1 (KRAS G12D) cells
[10] = Homo sapiens, Capan-2, Capan-2 (KRAS G12V) cells

Row | Structure (SMILES) | IC50 (KP-2 cells (KRAS G12R)) [nM] | IC50 (AsPC-1 cells (KRAS G12D) [1]; [9]) [nM] | IC50 (AsPC-1 cells (KRAS G12D) [2]) [nM] | IC50 (HT1080 cells (NRAS) [3]; Homo sapiens, HT-1080) [nM] | IC50 (HCT116 cells (KRAS G13D)) [nM] | IC50 (SW1900 cells (KRAS G12D)) [nM] | IC50 [4] [nM] | IC50 (HPAC cells (KRAS G12D); Homo sapiens, HPAC) [nM] | IC50 [5, 10] [nM] | IC50 (H358 cells (KRAS G12C)) [nM] | IC50 (H1573 cells (KRAS G12A)) [nM] | IC50 (HT1080 cells (NRAS) [6]) [nM] | IC50 (AsPC-1 cells (KRAS G12D) [1]; AsPC-1 (KRAS G12D) cells) [nM] | IC50 (HT1080 cells (NRAS) [3]) [nM] | IC50 (HPAC cells (KRAS G12D)) [nM] | IC50 ([5]; Capan-2 (KRAS G12V) cells) [nM] | IC50 (RKN cells (KRAS G12V) [7]) [nM] | IC50 (RKN cells (KRAS G12V) [8]) [nM]
1 | CCC(=O)N1CC[C@@H](N(CC)c2nc(OC[C@@]34CCCN3C[C@H](F)C4)nc3c(F)c(-c4ccc(F)c5sc(N)c(C#N)c45)c(C(F)(F)F)cc23)[C@H]1C (atropisomer, axis not shown) [Compound 523] | ≤ 100 | 100 to 1000 | 100 to 1000 | > 1000 | ≤ 100 | ≤ 100 | ≤ 100 | ≤ 100 | ≤ 100 | ≤ 100 | ≤ 100 | > 1000 | – | – | – | – | – | –
2 | CCN(c1nc(OC[C@@]23CCCN2C[C@H](F)C3)nc2c(F)c(-c3ccc(F)c4sc(N)c(C#N)c34)c(C(F)(F)F)cc12)[C@H]1CCN(C(=O)C(C)C)C1 (atropisomer, axis not shown) [Compound 468] | – | – | – | – | – | – | – | – | – | – | – | – | > 1000 | > 1000 | > 1000 | > 1000 | – | –
3 | N#Cc1c(N)sc2c(F)ccc(-c3c(C(F)(F)F)cc4c(N5CCn6nc(N7CCOCC7)cc6C5)nc(OC[C@@]56CCCN5C[C@H](F)C6)nc4c3F)c12 [Compound 485] | – | 100 to 1000 | ≤ 100 | > 1000 | – | ≤ 100 | 100 to 1000 | 100 to 1000 | ≤ 100 | ≤ 100 | – | > 1000 | – | – | – | – | – | –
4 | Cc1cc2n(n1)CCN(c1nc(OCC34CCCN3CC(F)C4)nc3c(F)c(-c4ccc(F)c5sc(N)c(C#N)c45)c(C(F)(F)F)cc13)C2 (stereo not shown) [Compound 484] | – | ≤ 100 | ≤ 100 | > 1000 | – | ≤ 100 | 100 to 1000 | 100 to 1000 | ≤ 100 | ≤ 100 | – | > 1000 | – | – | – | – | – | –
5 | CCN(c1nc(OC[C@@]23CCCN2C[C@H](F)C3)nc2c(F)c(-c3ccc(F)c4sc(N)c(C#N)c34)c(C(F)(F)F)cc12)[C@H]1C[C@@H]2COC(=O)N2C1 (atropisomer, axis not shown) [Compound 519] | – | ≤ 100 | ≤ 100 | – | – | ≤ 100 | ≤ 100 | 100 to 1000 | ≤ 100 | ≤ 100 | – | – | – | – | – | – | ≤ 100 | ≤ 100
